Assay results taken from patent US7820625B2, “UV-induced dermatitis inhibitor and atopic dermatitis inhibitor” (National Institute of Advanced Industrial Science and …, priority 2005, dated 2010).
Where a SMILES comes first, the peptide text is derived from it. Where no end group is shown, it is not given here.

Key:
[1] = system: BALB/c mice (DNFB-induced dermatitis, auricle skin); test: DNFB-induced dermatitis in mouse earlobes; amount of water evaporation (Tewameter TM300) to evaluate the barrier function of keratin; type: in vivo
Protocol: A 1 mg portion of glycylprolylisoleucylglycylserine (SEQ ID NO: 6) (hereinafter, also referred to as “GPIGS”) (manufactured by AMERICAN PEPTIDE COMPANY, Inc., lot. CC-09-119) was weighed. This GPIGS [SEQ ID NO: 6] was dissolved by the addition of 300 μl of Otsuka distilled water for injection (manufactured by Otsuka Pharmaceutical Co., Ltd., cat. 322134). Then, this solution was mixed with 200 μl of propylene glycol (manufactured by Wako Pure Chemical Industries, Ltd., cat. 161-05006) and 500 μl of ethanol (manufactured by Wako Pure Chemical Industries, Ltd., cat. 057-00456) to prepare 1 mg/ml GPIGS [SEQ ID NO: 6] solution (1).
Seven-week-old mice (produced by Japan SLC. Inc, BALB/c line) were raised for 1 week and acclimatized.
A 10 μl portion (14.5 mg) of […] (manufactured by NACALAI TESQUE, INC., cat. 135-12) (DNFB) was added to 9.7 ml of (acetone:olive oil=3:1) solution to prepare 1.5 mg/ml DNFB solution.
A 25 μl portion of 1.5 mg/ml DNFB solution was applied five times (once a week) to each of the front and back sides of the left and right earlobes of the BALB/c mice (8-week-old).
From one day after the 4th DNFB solution application, 25 μl of the drug solution was applied once a day to each of the front and back sides of the left and right earlobes (in the 5th DNFB solution application, the GPIGS [SEQ ID NO: 6] solution (1) was applied 1 hour before DNFB application). Forty-eight hours after the 5th DNFB solution application, an amount of water evaporation in the auricle surfaces was measured with Tewameter TM300 (manufactured by Courage+Khazaka electronic GmbH.) to evaluate the barrier function of keratin (1-3) (the present invention).
The barrier function of keratin was also evaluated on (1-1) wherein the same procedures aforementioned were performed except that a (acetone:olive oil=3:1) solution was applied instead of the DNFB solution and (1-2) (Comparative Example) wherein the same procedures aforementioned were performed except that a solution containing the GPIGS [SEQ ID NO: 6] solution (1) except for GPIGS [SEQ ID NO: 6] was used.
All the experiments were conducted using five mice.
The data in FIG. 1 are indicated with mean±standard deviation (mean±S.E.). Statistical analysis was conducted by Student's t-test (Stat View J-4.02, Abacus Concepts Inc.). A significant level less than 5% (p<0.05) means that a significant difference is present.

[2] = system: Hos:HR-1 mice (UVB-irradiated back skin); test: UVB-irradiated mouse back skin; amount of water evaporation (Tewameter TM300) to evaluate the barrier function of keratin; type: in vivo; conditions: for rate of increase in the total amount of water evaporation from the 1st day to the 10th day after UVB irradiation: 1 mg/ml ointment, increase of Comparative Example (5-2) over non-irradiated (5-1) defined as 100%
Protocol: A GPIGS [SEQ ID NO: 6] solution (1) was prepared in the same way as in Example 1.
Mice used were 10-week-old mice (produced by Japan SLC. Inc, Hos:HR-1 line) raised for 1 week or longer in the breeding room of National Institute of Advanced Industrial Science and Technology and acclimatized.
The backs of the mice fixed under pentobarbital anesthesia were irradiated with 150 mJ/cm^2 UVB for 5 days (once a day) to cause skin damage. A 100 μl portion of the drug solution was applied once a day immediately after UVB irradiation to each of the skin surfaces of the backs. An amount of water evaporation in the skin surfaces of the backs was measured with Tewameter TM300 (manufactured by Courage+Khazaka electronic GmbH.) to evaluate the barrier function of keratin.
All the experiments were conducted using four mice.
The data in FIG. 2 are indicated with mean±standard deviation (mean±S.E.). Statistical analysis was conducted by Student's t-test (Stat View J-4.02, Abacus Concepts Inc.). A significant level less than 5% (p<0.05) means that a significant difference is present. In this context, the open triangle denotes (2-1) without UVB irradiation; x denotes (2-2) (Comparative Example) using a solution containing the GPIGS [SEQ ID NO: 6] solution (1) except for GPIGS [SEQ ID NO: 6]; and the solid diamond denotes Example of the present application (2-3).

[3] = 1 mg/ml solution (water/propylene glycol/ethanol), 25 μl once a day on earlobes, 48 h after 5th DNFB application, vehicle control 13.11 (GPIGS experiment), 9.29 (IGS experiment)

| Compound | amount of water evaporation [1, 3] | rate of increase in the total amount of water evaporation from the 1st day to the 10th day after UVB irradiation [2] | amount of water evaporation ([1]; 1 mg/ml ointment (3-3), base ointment control 8.42, no DNFB 1.83) | amount of water evaporation ([1]; 3 mg/ml ointment (3-4), base ointment control 8.42, no DNFB 1.83) | barrier function of keratin compared with Example 1 ([1]; 3 mg/ml solution, otherwise as Example 1) | dermatitis of each mouse ([1]; ointment (10 mg GPIGS with Hiviswako 104, propylene glycol, diisopropanolamine, gentamycin, water), mice treated as in Examples 1 and 2) | amount of water evaporation compared with Comparative Example (2-2) ([2]; 1 mg/ml solution, 100 μl once a day after 150 mJ/cm^2 UVB, following the fourth day after UVB irradiation) |
| --- | --- | --- | --- | --- | --- | --- | --- |
| CC[C@H](C)[C@H](N)C(=O)NCC(=O)N[C@@H](CO)C(=O)O [IGS, isoleucylglycylserine] (H-Ile-Gly-Ser-OH) | 5.57 g/m^2/hr | 55.4% | – | – | – | – | – |
| GPIGS [GPIGS, glycylprolylisoleucylglycylserine] | 11.30 g/m^2/hr | 82.1% | 5.23 g/m^2/hr | 3.89 g/m^2/hr | more excellent barrier function of keratin | improvement | significantly lower |
